Laboratory results as given in paper PMC3119659, “Ligand Activation of the Prokaryotic Pentameric Ligand-Gated Ion Channel ELIC” (PLoS Biology, 2011).
“Also recorded” adds a separate entry of the source. Like-named read-outs stand apart in the source and are kept apart here.

How the values were obtained:
ELIC [1] = target: T1, ELIC (Dickeya chrysanthemi, UniProt P0C7B7); assay: cell-based; format: cell-based, Erwinia chrysanthemi; conditions: for n (Hill coefficient) / EC50: WT; for EC50: read-out: EC50 of activation of ELIC
T1 construct: expressed in transfected cells; host or cells: Xenopus laevis oocytes (cRNA injection, pTLN vector)
Text: To identify ligands that activate ELIC we have expressed the protein in Xenopus laevis oocytes and investigated the response to potential agonists by the two-electrode voltage-clamp technique. Based on the volume and chemical properties of the proposed ligand binding region and the presence of positively charged ions bound to this site, we reasoned that parts of the agonists might have a cationic character. […] Our library included different natural products such as amino acids and their derivatives, metabolites, and related synthetic substances (Figure S3A).
Constructs containing the gene of either the WT channel or point mutants preceded by the signal sequence of the chicken α7nAchR were cloned into the pTLN vector for expression in X. laevis oocytes. After linearization of the plasmid DNA by MluI, capped complementary RNA was transcribed with the mMessage mMachine kit (Ambion) and purified with the RNeasy kit (Qiagen). For expression, 1–50 ng of RNA was injected into defolliculated oocytes. Two-electrode voltage clamp measurements were performed one day after injection at 20°C (OC-725B, Warner Instrument Corp.). […] Cysteamine containing solutions were supplemented with 1 mM DTT.

[2] = target: T2, ELIC Phe187 mutated to alanine (Dickeya chrysanthemi, UniProt P0C7B7, F187A); assay: Two-electrode voltage clamp of ELIC Phe187 alanine mutant; format: cell-based, Erwinia chrysanthemi
T2 construct: expressed in transfected cells; host or cells: Xenopus laevis oocytes (cRNA injection, pTLN vector)
Text: (§1) To investigate the role of residues surrounding the bound ligand for channel activation, we have mutated single residues to alanine and we have measured activation with the two-electrode voltage-clamp technique (Table 2). For many mutants there was no response to the addition of cysteamine. This was the case for all investigated residues of the principal site, such as Glu77 and Glu131, that may interact with the primary amino group and hydrophobic and aromatic residues (i.e., Phe187, Phe133, Tyr174, Ile79) that surround the aliphatic carbon atoms of the ligand. The effect of mutations on the complementary side, in contrast, was diverse and in some cases less drastic. The mutations of Phe19 on β-1 and Val40 on β-2 shifted the activation towards higher agonist concentrations (Figure 4B).
(§2) Constructs containing the gene of either the WT channel or point mutants preceded by the signal sequence of the chicken α7nAchR were cloned into the pTLN vector for expression in X. laevis oocytes. After linearization of the plasmid DNA by MluI, capped complementary RNA was transcribed with the mMessage mMachine kit (Ambion) and purified with the RNeasy kit (Qiagen). For expression, 1–50 ng of RNA was injected into defolliculated oocytes. […] Currents were recorded in bath solutions containing 10 mM HEPES (pH 7), 130 mM NaCl, and the respective ligands. […]

[3] = target: T3, ELIC Tyr174 mutated to alanine (Dickeya chrysanthemi, UniProt P0C7B7, Y174A); assay: Two-electrode voltage clamp of ELIC Tyr174 alanine mutant; format: cell-based, Erwinia chrysanthemi
T3 construct: expressed in transfected cells; host or cells: Xenopus laevis oocytes (cRNA injection, pTLN vector)
Text: as §1, §2

ELIC F19A = target: T4, ELIC F19A (Dickeya chrysanthemi, UniProt P0C7B7, F19A); assay: Two-electrode voltage clamp of ELIC point mutant F19A in oocytes; format: cell-based, Erwinia chrysanthemi; conditions: read-out: EC50 of activation
T4 construct: expressed in transfected cells; host or cells: Xenopus laevis oocytes (cRNA injection, pTLN vector)
Text: as §1, §2

[4] = target: T5, ELIC Glu77 mutated to alanine (Dickeya chrysanthemi, UniProt P0C7B7, E77A); assay: Two-electrode voltage clamp of ELIC Glu77 alanine mutant; format: cell-based, Erwinia chrysanthemi
T5 construct: expressed in transfected cells; host or cells: Xenopus laevis oocytes (cRNA injection, pTLN vector)
Text: as §1, §2

ELIC F246A = target: T6, ELIC F246A (Dickeya chrysanthemi, UniProt P0C7B7, F246A); assay: Two-electrode voltage clamp of ELIC pore mutant F246A in oocytes; format: cell-based, Erwinia chrysanthemi
T6 construct: expressed in transfected cells; host or cells: Xenopus laevis oocytes (cRNA injection, pTLN vector)
Text: In contrast to the extracellular domain, the pore of ELIC resembles cation selective members of the family that include nAChRs, serotonin receptors, and the prokaryotic channel GLIC (Figure S1G). In cation selective pLGICs, three layers of hydrophobic side-chains provide an overall apolar character to the extracellular half of the pore region while the following two layers of polar residues and a layer of negatively charged residues render the intracellular half hydrophilic,[30]. […] To investigate the role of this aromatic group for channel opening, we have mutated it to alanine and studied the mutant by X-ray crystallography and electrophysiology. […] This shift is due to a mutation of a residue located remote from the ligand binding site and thus likely reflects a decreased efficacy of the channel.
as §2

[5] = target: T7, ELIC Phe133 mutated to alanine (Dickeya chrysanthemi, UniProt P0C7B7, F133A); assay: Two-electrode voltage clamp of ELIC Phe133 alanine mutant; format: cell-based, Erwinia chrysanthemi
T7 construct: expressed in transfected cells; host or cells: Xenopus laevis oocytes (cRNA injection, pTLN vector)
Text: as §1, §2

ELIC V40A = target: T8, ELIC V40A (Dickeya chrysanthemi, UniProt P0C7B7, V40A); assay: Two-electrode voltage clamp of ELIC point mutant V40A in oocytes; format: cell-based, Erwinia chrysanthemi
T8 construct: expressed in transfected cells; host or cells: Xenopus laevis oocytes (cRNA injection, pTLN vector)
Text: as §1
(§3) Constructs containing the gene of either the WT channel or point mutants preceded by the signal sequence of the chicken α7nAchR were cloned into the pTLN vector for expression in X. laevis oocytes. After linearization of the plasmid DNA by MluI, capped complementary RNA was transcribed with the mMessage mMachine kit (Ambion) and purified with the RNeasy kit (Qiagen). For expression, 1–50 ng of RNA was injected into defolliculated oocytes. Two-electrode voltage clamp measurements were performed one day after injection at 20°C (OC-725B, Warner Instrument Corp.). Currents were recorded in bath solutions containing 10 mM HEPES (pH 7), 130 mM NaCl, and the respective ligands. Cysteamine containing solutions were supplemented with 1 mM DTT.

[6] = target: T9, ELIC Glu131 mutated to alanine (Dickeya chrysanthemi, UniProt P0C7B7, E131A); assay: Two-electrode voltage clamp of ELIC Glu131 alanine mutant; format: cell-based, Erwinia chrysanthemi
T9 construct: expressed in transfected cells; host or cells: Xenopus laevis oocytes (cRNA injection, pTLN vector)
Text: as §1, §2

[7] = target: T10, ELIC Asn103 mutated to alanine (Dickeya chrysanthemi, UniProt P0C7B7, N103A); assay: Two-electrode voltage clamp of ELIC Asn103 alanine mutant; format: cell-based, Erwinia chrysanthemi
T10 construct: expressed in transfected cells; host or cells: Xenopus laevis oocytes (cRNA injection, pTLN vector)
Text: as §1, §2

[8] = Protonation of the sulfhydryl group of cysteamine; format: physicochemical; conditions: at the pH of the recording solution
[9] = target: T11, ELIC Ile79 mutated to alanine (Dickeya chrysanthemi, UniProt P0C7B7, I79A); assay: Two-electrode voltage clamp of ELIC Ile79 alanine mutant; format: cell-based, Erwinia chrysanthemi
T11 construct: expressed in transfected cells; host or cells: Xenopus laevis oocytes (cRNA injection, pTLN vector)
Text: as §1, §2

ELIC R91A = target: T12, ELIC R91A (Dickeya chrysanthemi, UniProt P0C7B7, R91A); assay: Two-electrode voltage clamp of ELIC point mutant R91A in oocytes; format: cell-based, Erwinia chrysanthemi
T12 construct: expressed in transfected cells; host or cells: Xenopus laevis oocytes (cRNA injection, pTLN vector)
Text: as §1, §3

ELIC [10] = target: T1, ELIC; assay: Patch clamp of excised outside-out patches, fast solution exchange (activation and deactivation kinetics); format: cell-based, Erwinia chrysanthemi; conditions: -60 mV, n = 19, errors s.d., upper limit
Method: We have thus used this molecule as an agonist in most subsequent experiments. […] Stable currents over a period of seconds were obtained upon addition of high micromolar concentrations of cysteamine to the extracellular medium (Figure 3A). At longer incubations with the ligand, however, the currents decayed, which is indicative for a slow desensitization of the channel (Figure S4A). […] To follow the time-course of activation and deactivation, we have investigated excised outside-out patches in response to fast solution exchange. A similar phenotype of currents as previously seen in two-electrode voltage clamp recordings, although with faster kinetics of desensitization, was also observed for macroscopic currents in a patch clamp experiment (Figure 3B, Figure S4B). At 5 mM cysteamine, channel activation and deactivation can be approximated by exponential functions with time constants in the ms range (τact = 20±5 ms, n = 19, τdeact = 53±7 ms, n = 19, all errors are s.d.). […]
Membrane patches of X. laevis oocytes were recorded in the excised outside-out configuration 2–3 d after injection of mRNA with an Axopatch 200B amplifier (Axon Instruments) at 20°C. Data were sampled at 100 µs, filtered with 1,000 Hz, and analyzed using Clampfit (Axon Instruments, Inc.). […]

[11] = pH 8.0, two-electrode voltage clamp, -60 mV
[12] = pH 9.0, averages and s.d. of six measurements
[13] = pH 7.0, two-electrode voltage clamp, -60 mV, fit to Hill equation
[14] = ligand added to the extracellular solution, 10 mM, -60 mV, compared with 2 mM cysteamine
[15] = pH 7.0, averages and s.d. of six measurements

T1 sequence (P0C7B7 whole entry): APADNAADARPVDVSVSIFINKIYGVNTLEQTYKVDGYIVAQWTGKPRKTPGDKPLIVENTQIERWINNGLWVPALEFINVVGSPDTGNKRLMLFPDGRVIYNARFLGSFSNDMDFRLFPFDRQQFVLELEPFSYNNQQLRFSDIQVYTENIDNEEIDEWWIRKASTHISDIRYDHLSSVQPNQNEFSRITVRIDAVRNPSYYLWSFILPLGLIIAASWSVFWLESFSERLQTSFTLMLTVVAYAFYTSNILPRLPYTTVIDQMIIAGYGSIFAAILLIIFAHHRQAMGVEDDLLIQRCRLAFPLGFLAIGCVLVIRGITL
T12 sequence (P0C7B7 whole entry R91A): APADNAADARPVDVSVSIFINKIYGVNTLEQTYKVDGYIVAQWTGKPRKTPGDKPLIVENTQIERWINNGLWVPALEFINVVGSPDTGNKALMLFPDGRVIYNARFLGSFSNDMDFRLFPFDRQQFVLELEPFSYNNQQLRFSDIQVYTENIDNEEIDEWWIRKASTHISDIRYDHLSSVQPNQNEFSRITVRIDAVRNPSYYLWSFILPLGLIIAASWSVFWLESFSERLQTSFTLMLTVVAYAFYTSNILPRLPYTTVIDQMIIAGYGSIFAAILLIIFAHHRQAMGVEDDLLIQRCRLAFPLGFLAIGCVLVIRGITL
T6 sequence (P0C7B7 whole entry F246A): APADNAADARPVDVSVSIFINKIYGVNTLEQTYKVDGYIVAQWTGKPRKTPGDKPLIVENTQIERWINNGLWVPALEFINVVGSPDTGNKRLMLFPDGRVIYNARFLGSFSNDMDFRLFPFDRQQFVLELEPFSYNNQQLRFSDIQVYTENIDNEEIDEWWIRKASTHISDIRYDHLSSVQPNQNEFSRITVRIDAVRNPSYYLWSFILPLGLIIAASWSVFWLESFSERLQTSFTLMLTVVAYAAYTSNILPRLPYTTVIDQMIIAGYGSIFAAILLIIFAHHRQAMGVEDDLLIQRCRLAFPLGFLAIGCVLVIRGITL
T8 sequence (P0C7B7 whole entry V40A): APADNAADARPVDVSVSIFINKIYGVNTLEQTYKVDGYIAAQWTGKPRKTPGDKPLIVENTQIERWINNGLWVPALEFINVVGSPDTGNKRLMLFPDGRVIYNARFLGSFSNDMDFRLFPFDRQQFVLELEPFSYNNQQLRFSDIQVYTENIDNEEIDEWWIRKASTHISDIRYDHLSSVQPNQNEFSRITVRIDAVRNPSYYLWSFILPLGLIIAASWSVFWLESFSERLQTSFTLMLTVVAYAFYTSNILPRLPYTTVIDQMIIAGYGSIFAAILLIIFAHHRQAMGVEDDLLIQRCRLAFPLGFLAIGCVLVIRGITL
T11 sequence (P0C7B7 whole entry I79A): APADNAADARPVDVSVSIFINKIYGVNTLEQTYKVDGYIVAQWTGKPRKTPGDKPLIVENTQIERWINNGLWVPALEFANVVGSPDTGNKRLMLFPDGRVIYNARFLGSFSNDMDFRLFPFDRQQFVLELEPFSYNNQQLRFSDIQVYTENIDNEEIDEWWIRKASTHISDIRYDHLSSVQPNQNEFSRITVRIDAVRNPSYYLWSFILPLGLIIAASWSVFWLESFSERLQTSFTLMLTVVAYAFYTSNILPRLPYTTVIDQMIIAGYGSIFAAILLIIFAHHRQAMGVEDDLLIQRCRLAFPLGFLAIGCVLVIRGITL
T3 sequence (P0C7B7 whole entry Y174A): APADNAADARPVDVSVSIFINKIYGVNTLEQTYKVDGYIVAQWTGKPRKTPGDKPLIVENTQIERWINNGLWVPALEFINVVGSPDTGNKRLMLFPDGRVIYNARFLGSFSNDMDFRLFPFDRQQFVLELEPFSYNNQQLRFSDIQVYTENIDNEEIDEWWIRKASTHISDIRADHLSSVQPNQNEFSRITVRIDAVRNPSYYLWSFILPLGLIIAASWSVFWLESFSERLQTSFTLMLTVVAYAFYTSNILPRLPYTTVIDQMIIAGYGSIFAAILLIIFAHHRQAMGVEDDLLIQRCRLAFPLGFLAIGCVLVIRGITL
T2 sequence (P0C7B7 whole entry F187A): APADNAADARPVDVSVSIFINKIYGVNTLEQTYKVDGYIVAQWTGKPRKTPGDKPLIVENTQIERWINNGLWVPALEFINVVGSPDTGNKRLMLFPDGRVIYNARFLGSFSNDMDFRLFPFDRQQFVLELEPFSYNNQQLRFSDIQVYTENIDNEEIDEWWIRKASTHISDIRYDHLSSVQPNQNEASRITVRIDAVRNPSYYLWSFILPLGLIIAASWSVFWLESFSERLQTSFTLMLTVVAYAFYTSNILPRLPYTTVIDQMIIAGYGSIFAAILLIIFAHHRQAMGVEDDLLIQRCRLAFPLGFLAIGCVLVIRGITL
T7 sequence (P0C7B7 whole entry F133A): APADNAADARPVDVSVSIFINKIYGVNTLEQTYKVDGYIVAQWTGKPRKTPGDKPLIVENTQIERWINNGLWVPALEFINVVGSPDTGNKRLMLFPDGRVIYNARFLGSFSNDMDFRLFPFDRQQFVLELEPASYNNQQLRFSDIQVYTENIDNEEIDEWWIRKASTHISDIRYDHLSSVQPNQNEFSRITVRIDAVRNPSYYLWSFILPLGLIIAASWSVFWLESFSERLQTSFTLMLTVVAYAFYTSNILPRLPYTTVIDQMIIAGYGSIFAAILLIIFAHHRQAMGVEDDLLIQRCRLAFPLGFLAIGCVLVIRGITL
T5 sequence (P0C7B7 whole entry E77A): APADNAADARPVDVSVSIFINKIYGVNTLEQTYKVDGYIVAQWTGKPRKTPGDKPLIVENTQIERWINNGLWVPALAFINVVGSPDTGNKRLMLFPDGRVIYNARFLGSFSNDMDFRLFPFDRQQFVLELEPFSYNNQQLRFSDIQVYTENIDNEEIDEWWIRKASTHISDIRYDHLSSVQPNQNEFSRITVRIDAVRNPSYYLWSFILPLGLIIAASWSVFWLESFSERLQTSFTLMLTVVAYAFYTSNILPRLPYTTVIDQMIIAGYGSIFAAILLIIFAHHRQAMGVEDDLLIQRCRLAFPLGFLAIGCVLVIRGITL
T4 sequence (P0C7B7 whole entry F19A): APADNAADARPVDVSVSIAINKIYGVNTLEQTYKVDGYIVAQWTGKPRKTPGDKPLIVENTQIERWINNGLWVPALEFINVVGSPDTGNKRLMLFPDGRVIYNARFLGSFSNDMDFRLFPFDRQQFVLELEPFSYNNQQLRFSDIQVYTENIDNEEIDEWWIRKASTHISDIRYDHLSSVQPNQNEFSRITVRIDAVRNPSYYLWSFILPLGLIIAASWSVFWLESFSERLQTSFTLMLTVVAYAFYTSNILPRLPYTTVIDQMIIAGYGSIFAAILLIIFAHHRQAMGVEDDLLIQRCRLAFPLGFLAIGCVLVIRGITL
T9 sequence (P0C7B7 whole entry E131A): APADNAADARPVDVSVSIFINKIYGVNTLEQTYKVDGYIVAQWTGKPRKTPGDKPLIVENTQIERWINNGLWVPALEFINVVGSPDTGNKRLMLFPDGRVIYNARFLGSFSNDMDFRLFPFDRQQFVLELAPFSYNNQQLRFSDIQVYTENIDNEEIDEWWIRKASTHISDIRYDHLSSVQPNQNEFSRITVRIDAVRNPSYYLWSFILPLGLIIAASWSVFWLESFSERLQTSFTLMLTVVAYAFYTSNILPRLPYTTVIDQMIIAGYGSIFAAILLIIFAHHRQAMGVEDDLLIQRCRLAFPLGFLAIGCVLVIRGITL
T10 sequence (P0C7B7 whole entry N103A): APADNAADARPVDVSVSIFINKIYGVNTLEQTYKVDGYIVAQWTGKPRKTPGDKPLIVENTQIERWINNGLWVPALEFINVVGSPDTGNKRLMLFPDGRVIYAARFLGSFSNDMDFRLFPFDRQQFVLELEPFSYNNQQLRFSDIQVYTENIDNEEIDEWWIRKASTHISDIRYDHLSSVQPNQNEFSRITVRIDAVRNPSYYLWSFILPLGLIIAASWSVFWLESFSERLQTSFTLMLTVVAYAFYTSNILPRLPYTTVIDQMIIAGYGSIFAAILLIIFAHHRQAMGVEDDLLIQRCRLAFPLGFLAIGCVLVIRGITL

NCC(=O)O [glycine]
activating current response of ELIC to the ligand (ELIC [1]): absent

diaminopropane
n (Hill coefficient) (ELIC [1]; pH 8.0): 3.1 | EC50 (ELIC [1]; [11]): 3000 µM | Imax/Imax cysteamine (ELIC [1]; [12]): 1.08±0.03

NCCCC(=O)O [GABA]
n (Hill coefficient) (ELIC [1]; pH 7.0): 3.9 | EC50 (ELIC [1]; [13]): 2400 µM | activating current response of ELIC to the ligand (ELIC [1]; [14]): activating response at low mM concentrations | Imax/Imax cysteamine (ELIC [1]; [15]): 0.79±0.09

CC(=O)OCC[N+](C)(C)C [acetylcholine]
activating current response of ELIC to the ligand (ELIC [1]; [14]): ineffective

CCN [Ethylamine]
activating current response of ELIC to the ligand (ELIC [1]; [14]): activate the channel

CCCN [aminopropane]
n (Hill coefficient) (ELIC [1]; pH 7.0): 3.0 | EC50 (ELIC [1]; [13]): 446 µM | activating current response of ELIC to the ligand (ELIC [1]; [14]): activate the channel | Imax/Imax cysteamine (ELIC [1]; [15]): 0.99±0.02

NCCBr [bromoethylamine]
n (Hill coefficient) (ELIC [1]; pH 7.0): 3.1 | EC50 (ELIC [1]; [13]): 885 µM | activating current response of ELIC to the ligand (ELIC [1]; [14]): opening the channel | Imax/Imax cysteamine (ELIC [1]; [15]): 0.94±0.04

NCCN
n (Hill coefficient) (ELIC [1]; pH 8.0): 3.2 | EC50 (ELIC [1]; [11]): 2000 µM | activating current response of ELIC to the ligand (ELIC [1]; [14]): activate ELIC | activating current response of ELIC to the ligand (ELIC [1]; ligand added to the extracellular solution, 10 mM, -60 mV, compared with 2 mM cysteamine, listed as aminoethane): already active at neutral conditions | Imax/Imax cysteamine (ELIC [1]; [12]): 1.07±0.06

NCCS [cysteamine]
response to the addition of the ligand [2]: no response | response to the addition of the ligand [3]: no response | EC50 (ELIC F19A): > 10000 µM | n (Hill coefficient) (ELIC [1]; pH 7.0): 2.7 | EC50 (ELIC [1]; [13]): 365 µM | EC50 (ELIC [1]; voltage-independent activation): 365 µM | activating current response of ELIC to the ligand (ELIC [1]; [14]): most efficacious; also recorded: strongest response at low ligand concentration | Imax/Imax cysteamine (ELIC [1]; [15]): 1 | response to the addition of the ligand [4]: no response | n (Hill coefficient) (ELIC F246A): 3.0 | EC50 (ELIC F246A; read-out: EC50 of activation): 2590 µM | response to the addition of the ligand [5]: no response | n (Hill coefficient) (ELIC V40A): 2.6 | EC50 (ELIC V40A; read-out: EC50 of activation): 1900 µM | response to the addition of the ligand [6]: no response | response to the addition of the ligand [7]: did not show an activating response | sulfhydryl groups protonated [8]: > 96% | response to the addition of the ligand [9]: no response | n (Hill coefficient) (ELIC R91A; mutant R91A): 2.6 | fold decrease of the EC50 (ELIC R91A; mutant R91A compared with WT): 4 fold | EC50 (ELIC R91A; mutant R91A, read-out: EC50 of activation): 87 µM | τact, time constant of channel activation (ELIC [10]; 5 mM cysteamine): 20 ± 5 ms | τdeact, time constant of channel deactivation (ELIC [10]; washout of 5 mM cysteamine): 53 ± 7 ms
